Experimental data from paper PMC11868595, “Safety, pharmacokinetics and efficacy of HA121-28 in patients with advanced solid tumors and RET fusion-positive non-small-cell lung cancer: a multicenter, open-label, single-arm phase 1/2 trial” (Signal Transduction and Targeted Therapy, 2025).

Assays:
Ames test = conditions: in vitro Ames test
RET = RET (Homo sapiens, UniProt P07949); assay: Tyrosine kinase inhibition; format: biochemical
Dog plasma kinetics = format: in vivo

RET, sequence (P07949 29-1114): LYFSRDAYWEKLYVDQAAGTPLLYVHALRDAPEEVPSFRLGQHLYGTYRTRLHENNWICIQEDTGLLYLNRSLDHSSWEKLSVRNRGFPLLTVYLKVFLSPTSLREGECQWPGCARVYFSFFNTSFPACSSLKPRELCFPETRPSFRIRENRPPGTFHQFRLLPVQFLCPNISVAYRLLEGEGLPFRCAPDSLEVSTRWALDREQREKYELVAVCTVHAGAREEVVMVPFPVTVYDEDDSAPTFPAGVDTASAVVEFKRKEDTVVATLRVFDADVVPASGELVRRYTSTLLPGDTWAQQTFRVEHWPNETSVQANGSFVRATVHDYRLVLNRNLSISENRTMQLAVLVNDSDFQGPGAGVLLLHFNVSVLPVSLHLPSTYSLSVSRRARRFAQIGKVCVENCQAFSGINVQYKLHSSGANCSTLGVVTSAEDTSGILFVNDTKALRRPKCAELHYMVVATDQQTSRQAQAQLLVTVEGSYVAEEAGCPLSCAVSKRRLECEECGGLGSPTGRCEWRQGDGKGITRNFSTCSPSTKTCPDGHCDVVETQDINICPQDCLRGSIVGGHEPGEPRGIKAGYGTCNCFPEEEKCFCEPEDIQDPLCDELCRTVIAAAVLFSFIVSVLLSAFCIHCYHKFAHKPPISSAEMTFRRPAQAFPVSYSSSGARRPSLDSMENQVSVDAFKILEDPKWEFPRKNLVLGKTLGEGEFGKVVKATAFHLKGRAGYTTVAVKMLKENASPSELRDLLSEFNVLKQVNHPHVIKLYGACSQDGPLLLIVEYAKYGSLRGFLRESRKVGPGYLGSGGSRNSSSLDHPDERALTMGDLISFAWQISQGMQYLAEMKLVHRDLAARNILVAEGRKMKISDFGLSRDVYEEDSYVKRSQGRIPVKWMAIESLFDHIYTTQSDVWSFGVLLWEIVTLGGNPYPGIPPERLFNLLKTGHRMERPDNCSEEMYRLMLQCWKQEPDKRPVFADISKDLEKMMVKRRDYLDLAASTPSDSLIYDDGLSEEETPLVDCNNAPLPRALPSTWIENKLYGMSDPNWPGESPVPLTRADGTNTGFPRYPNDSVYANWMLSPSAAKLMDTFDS

COc1cc2c(Nc3ccc(Br)cc3F)ncnc2cc1OCCCCN(C)C.Cl.Cl [HA121-28, N-(4-bromo-2-fluorophenyl)-7-(4-(dimethylamino)butoxy)-6-methoxy quinazolin-4-amine dihydrochloride]
genetic toxicity (Ames test): negative | IC50 (RET): 8.72 nM | AUC0-72h (Dog plasma kinetics; 7 consecutive days (5 mg/kg)): 639 ± 69.0 ng·h/mL | AUC0-∞ (Dog plasma kinetics; 7 consecutive days (5 mg/kg)): 655 ± 72.2 ng·h/mL | CL (Dog plasma kinetics; 7 consecutive days (5 mg/kg)): 175 ± 21.5 mL/min/kg | Cmax (Dog plasma kinetics; 7 consecutive days (5 mg/kg)): 30.6 ± 3.25 ng/mL | MRT0-∞ (Dog plasma kinetics; 7 consecutive days (5 mg/kg)): 18.5 ± 1.89 h | Tmax (Dog plasma kinetics; 7 consecutive days (5 mg/kg)): 6.17 ± 2.48 h | Vd (Dog plasma kinetics; 7 consecutive days (5 mg/kg)): 214 ± 25.1 L/kg | t1/2 (Dog plasma kinetics; 7 consecutive days (5 mg/kg)): 14.2 ± 1.19 h | F (oral bioavailability) (Dog plasma kinetics; dog): 56.0% | AUC0-72h (Dog plasma kinetics; high dose (10 mg/kg)): 837 ± 207 ng·h/mL | AUC0-∞ (Dog plasma kinetics; high dose (10 mg/kg)): 848 ± 212 ng·h/mL | CL (Dog plasma kinetics; high dose (10 mg/kg)): 212 ± 75.2 mL/min/kg | Cmax (Dog plasma kinetics; high dose (10 mg/kg)): 58.9 ± 26.7 ng/mL | MRT0-72h (Dog plasma kinetics; high dose (10 mg/kg)): 14.8 ± 1.96 h | MRT0-∞ (Dog plasma kinetics; high dose (10 mg/kg)): 15.7 ± 2.45 h | Tmax (Dog plasma kinetics; high dose (10 mg/kg)): 2.17 ± 0.753 h | Vd (Dog plasma kinetics; high dose (10 mg/kg)): 197 ± 57.5 L/kg | t1/2 (Dog plasma kinetics; high dose (10 mg/kg)): 11.0 ± 1.51 h | AUC0-72h (Dog plasma kinetics; intravenous (2.5 mg/kg)): 489 ± 73.0 ng·h/mL | AUC0-∞ (Dog plasma kinetics; intravenous (2.5 mg/kg)): 493 ± 73.7 ng·h/mL | C5min (Dog plasma kinetics; intravenous (2.5 mg/kg)): 124 ± 17.6 ng/mL | CL (Dog plasma kinetics; intravenous (2.5 mg/kg)): 86.3 ± 14.8 mL/min/kg | MRT0-72h (Dog plasma kinetics; intravenous (2.5 mg/kg)): 10.9 ± 1.30 h | MRT0-∞ (Dog plasma kinetics; intravenous (2.5 mg/kg)): 11.5 ± 1.51 h | Vd (Dog plasma kinetics; intravenous (2.5 mg/kg)): 85.0 ± 27.0 L/kg | t1/2 (Dog plasma kinetics; intravenous (2.5 mg/kg)): 11.2 ± 1.70 h | AUC0-72h (Dog plasma kinetics; low dose (2.5 mg/kg)): 274 ± 68.2 ng·h/mL | AUC0-∞ (Dog plasma kinetics; low dose (2.5 mg/kg)): 279 ± 70.5 ng·h/mL | CL (Dog plasma kinetics; low dose (2.5 mg/kg)): 157 ± 37.3 mL/min/kg | Cmax (Dog plasma kinetics; low dose (2.5 mg/kg)): 13.4 ± 2.71 ng/mL | MRT0-72h (Dog plasma kinetics; low dose (2.5 mg/kg)): 16.3 ± 2.03 h | MRT0-∞ (Dog plasma kinetics; low dose (2.5 mg/kg)): 17.6 ± 2.45 h | Tmax (Dog plasma kinetics; low dose (2.5 mg/kg)): 6.50 ± 3.51 h | Vd (Dog plasma kinetics; low dose (2.5 mg/kg)): 160 ± 41.3 L/kg | t1/2 (Dog plasma kinetics; low dose (2.5 mg/kg)): 11.8 ± 1.00 h | AUC0-72h (Dog plasma kinetics; medium dose (5 mg/kg)): 393 ± 74.0 ng·h/mL | AUC0-∞ (Dog plasma kinetics; medium dose (5 mg/kg)): 398 ± 75.3 ng·h/mL | CL (Dog plasma kinetics; medium dose (5 mg/kg)): 217 ± 42.8 mL/min/kg | Cmax (Dog plasma kinetics; medium dose (5 mg/kg)): 24.8 ± 3.90 ng/mL | MRT0-72h (Dog plasma kinetics; medium dose (5 mg/kg)): 14.3 ± 1.36 h | MRT0-∞ (Dog plasma kinetics; medium dose (5 mg/kg)): 15.2 ± 1.57 h | Tmax (Dog plasma kinetics; medium dose (5 mg/kg)): 2.17 ± 0.753 h | Vd (Dog plasma kinetics; medium dose (5 mg/kg)): 217 ± 53.6 L/kg | t1/2 (Dog plasma kinetics; medium dose (5 mg/kg)): 11.5 ± 1.16 h
